Measurements taken from ChEMBL document CHEMBL3507680, “University of Dundee, Gates Library screen for HepG2 cell viability”.

test: Human HepG2 cell viability assay in 384 well format; format: toxicity, cell-based; design: dose 125 nL, time 70.5 hour; concentration not given beside the values; details: HepG2 cells, read-out: Inhibition

Question: With `CC1CCCCN1CCNC(=O)c1ccccc1N1CCOCC1` (stereo unspecified) as the compound, how does the cytotoxicity at 70.5 h read?
Answer: 19%

Question: For `CN(C)c1cc(C(=O)NCCc2n[nH]c(=O)[nH]2)ccn1`, which cytotoxicity at 70.5 h is on record?
Answer: -5.07%

Question: With `C[C@@H]1CN(Cc2nc(C(N)=O)no2)CC[C@@]1(O)C1CC1` as the compound, how does the cytotoxicity at 70.5 h read?
Answer: -14.8%

Question: For `Cn1ccnc1CN1CCN(Cc2cc(C#N)ccc2F)CC1`, which cytotoxicity at 70.5 h is on record?
Answer: -11.4%

Question: For `O=C(CN1CCCC1CC(=O)c1ccccc1)NCc1ccccn1` (stereo unspecified), which cytotoxicity at 70.5 h is on record?
Answer: 4.93%

Question: With `O=C(Cc1ccc(F)cc1)NCc1ccc(C(=O)O)o1` as the compound, how does the cytotoxicity at 70.5 h read?
Answer: -2.52%

Question: With `O=C(CCSc1ccc2c(c1)OCCO2)NCC1CCS(=O)(=O)C1` (stereo unspecified) as the compound, how does the cytotoxicity at 70.5 h read?
Answer: -3.43%

Question: For `CC(C)c1cc(C(=O)N(c2ccc(F)cn2)C2CCOCC2)nn1C`, which cytotoxicity at 70.5 h is on record?
Answer: 3.21%

Question: With `Cc1ccc(C(O)CNC(=O)CCCc2ccccn2)o1` (stereo unspecified) as the compound, how does the cytotoxicity at 70.5 h read?
Answer: -8.17%

Question: With `O=C(Nc1cccnc1)[C@@H]1C[C@H]2OCC[C@H]2N(Cc2ccsc2)C1` as the compound, how does the cytotoxicity at 70.5 h read?
Answer: 0.225%

Question: Which cytotoxicity at 70.5 h does the source give for `Cc1nc(C)n(CC2CCCN(c3ncnc4[nH]ccc34)C2)n1` (stereo unspecified) here?
Answer: 3.27%

Question: Which cytotoxicity at 70.5 h does the source give for `COc1c(CNCc2ccc(N(C)C)nc2)c(C)nn1C` here?
Answer: 24.3%

Question: With `CNC(=O)[C@@H](CC(C)C)N1CCC[C@H]1C(=O)N(C)Cc1ccccc1` as the compound, how does the cytotoxicity at 70.5 h read?
Answer: -7.93%

Question: With `O=C(c1ccnnc1)N1CC[C@@H](O)[C@@H]1Cc1ccccc1` as the compound, how does the cytotoxicity at 70.5 h read?
Answer: -9.3%

Question: For `COc1ccc(CNCCc2cc(F)cc3c2OCOC3)cc1O`, which cytotoxicity at 70.5 h is on record?
Answer: 2.79%

Question: With `Cc1ccc(CNC2CCc3[nH]c(=O)ccc3C2)cc1C` (stereo unspecified) as the compound, how does the cytotoxicity at 70.5 h read?
Answer: 2.24%

Question: For `CC(=O)N1CC[C@H]2CC(=O)N(CCc3c[nH]cn3)CC[C@H]2C1`, which cytotoxicity at 70.5 h is on record?
Answer: -2.6%

Question: Which cytotoxicity at 70.5 h does the source give for `O=C(C1CCC1)N1CCCC1c1nnc2n1CCCCC2` (stereo unspecified) here?
Answer: 9.95%

Question: With `Cc1nn(C)c(N(C)C)c1CNCc1ccc(OCC(N)=O)cc1` as the compound, how does the cytotoxicity at 70.5 h read?
Answer: 0.111%

Question: With `CC(=O)N1CCO[C@@H]2CN(S(=O)(=O)C3CC3)C[C@@H]2C1` as the compound, how does the cytotoxicity at 70.5 h read?
Answer: -0.958%

Question: With `CNc1cc(C)nc(N2CCC3(CC2)[C@H](O)C[C@@H]3OCCO)n1` as the compound, how does the cytotoxicity at 70.5 h read?
Answer: -4.12%

Question: With `Cc1csc(NC(=O)c2ccc(NC(=O)N3CCOCC3)cc2)n1` as the compound, how does the cytotoxicity at 70.5 h read?
Answer: 3.47%

Question: Which cytotoxicity at 70.5 h does the source give for `O=C(CCCc1nc2ccccc2[nH]1)N1CCCC(n2cccn2)C1` (stereo unspecified) here?
Answer: -1.12%

Question: Which cytotoxicity at 70.5 h does the source give for `Cn1nc(C(=O)NCc2ccc(Cl)cc2)c2c1CCS(=O)(=O)C2` here?
Answer: 2.61%

Question: For `CN(C)c1cc2c(nn1)CCN(C(=O)Cc1ccc3c(c1)CCC3)C2`, which cytotoxicity at 70.5 h is on record?
Answer: -1.75%

Question: With `O=C(CC1CCc2ccccc21)N1CCC(C(=O)O)(n2ccnc2)CC1` (stereo unspecified) as the compound, how does the cytotoxicity at 70.5 h read?
Answer: 22.5%

Question: For `CCN1CCN(C(=O)c2cc(-c3cccs3)cs2)CC1`, which cytotoxicity at 70.5 h is on record?
Answer: 15.8%

Question: With `O=C(Nc1nc2c(s1)CN(S(=O)(=O)C1CC1)CC2)c1ccsc1` as the compound, how does the cytotoxicity at 70.5 h read?
Answer: -12.1%

Question: For `CNC(=O)CN(C(=O)c1cc(C(C)C)no1)c1cccc(F)c1`, which cytotoxicity at 70.5 h is on record?
Answer: 27.9%

Question: Which cytotoxicity at 70.5 h does the source give for `CN1CCN(Cc2cccnc2)C2(CCN(Cc3ccccn3)C2)C1=O` (stereo unspecified) here?
Answer: -7.04%

Question: With `O=C(C1CC1)N1CCC2(CC1)COCCN2Cc1ccc(F)cc1` as the compound, how does the cytotoxicity at 70.5 h read?
Answer: 0.119%

Question: With `CC(C)C(=O)N1CCCN(C(=O)NC2CCc3ccccc3C2)CC1` (stereo unspecified) as the compound, how does the cytotoxicity at 70.5 h read?
Answer: -4.48%

Question: Which cytotoxicity at 70.5 h does the source give for `CC(=O)N1CCOC(c2nc(N(C)C)ncc2-c2cccc(F)c2)C1` (stereo unspecified) here?
Answer: -7.24%

Question: For `COc1ccc(C[C@H]2CN(C(=O)c3cc(C)no3)CC[C@H]2OC)cc1`, which cytotoxicity at 70.5 h is on record?
Answer: -5.12%

Question: For `COc1ccc2c(c1)CCN2Cc1nc2c(cnn2C)c(=O)[nH]1`, which cytotoxicity at 70.5 h is on record?
Answer: -9.79%

Question: For `CC(C)C(=O)N1CCN(c2ncnc3cc4c(cc23)OCCO4)CC1`, which cytotoxicity at 70.5 h is on record?
Answer: -1.97%

Question: With `Cc1cc(=O)[nH]c(NCCNC(=O)c2ccccc2N2CCCC2)n1` as the compound, how does the cytotoxicity at 70.5 h read?
Answer: 32.3%

Question: Which cytotoxicity at 70.5 h does the source give for `CN(C)C(=O)CC1CC2(CCN(CC3CC3)CC2)Oc2ccccc21` (stereo unspecified) here?
Answer: -3.69%

Question: With `COC(=O)[C@@H]1Cc2c[nH]c3cccc(c23)[C@H](CC(C)C)N1` as the compound, how does the cytotoxicity at 70.5 h read?
Answer: -2.26%

Question: With `CC[C@H]1CN(C(=O)c2cnc(N3CCN(C)CC3)nc2C)CC[C@@]1(C)O` as the compound, how does the cytotoxicity at 70.5 h read?
Answer: -7.86%

Question: For `CC(C(=O)NC1(C#N)CCCCC1)N1CCc2c(ncn2C)C1` (stereo unspecified), which cytotoxicity at 70.5 h is on record?
Answer: -3.36%

Question: Which cytotoxicity at 70.5 h does the source give for `NC(=O)Cn1cc(NC(=O)N2CCCC2)cn1` here?
Answer: -29.6%

Question: For `Cc1ccsc1CNC(=O)c1ccc(N2CCOC2=O)cc1`, which cytotoxicity at 70.5 h is on record?
Answer: -7.71%

Question: Which cytotoxicity at 70.5 h does the source give for `COC1CCCN(C(=O)NCc2ccc(C(=O)N(C)C(C)C)cc2)C1` (stereo unspecified) here?
Answer: 25.2%

Question: With `CCN1CCN(S(=O)(=O)N2CCCCCC2)[C@H]2CS(=O)(=O)C[C@H]21` as the compound, how does the cytotoxicity at 70.5 h read?
Answer: 30%

Question: With `Cc1csc(N2CCN(C(=O)NCCNc3ncccn3)CC2)n1` as the compound, how does the cytotoxicity at 70.5 h read?
Answer: -5.98%

Question: Which cytotoxicity at 70.5 h does the source give for `Cc1cccc(C(=O)NCc2cccnc2N(C)C)n1` here?
Answer: 1.42%

Question: For `Nc1nc2c(c(NC(=O)Nc3ccccc3)n1)CCCC2`, which cytotoxicity at 70.5 h is on record?
Answer: 16.9%

Question: For `C=Cc1ccc(C(=O)N2CCCC(Nc3ccc(F)cc3)C2)cc1` (stereo unspecified), which cytotoxicity at 70.5 h is on record?
Answer: 17%

Question: For `COc1ccc2[nH]cc(CCNC(=O)C3CCCN(C(C)=O)C3)c2c1` (stereo unspecified), which cytotoxicity at 70.5 h is on record?
Answer: -9.73%

Question: With `O=C(CCc1cc2n(n1)CCCNC2)N1CCC(N2CCOC2=O)CC1` as the compound, how does the cytotoxicity at 70.5 h read?
Answer: -3.48%

Question: Which cytotoxicity at 70.5 h does the source give for `O=C(NC1CCCOc2cc(Cl)ccc21)c1ccc(=O)[nH]n1` (stereo unspecified) here?
Answer: -13.7%

Question: Which cytotoxicity at 70.5 h does the source give for `CCc1nc2n(n1)CC(NCc1cnc(N(CC)CC)s1)CC2` (stereo unspecified) here?
Answer: -18.7%

Question: Which cytotoxicity at 70.5 h does the source give for `O=C1CC(NS(=O)(=O)c2ccccc2)CN1Cc1ccccc1` (stereo unspecified) here?
Answer: -5.96%

Question: With `COCc1cn([C@@H]2c3ccccc3C3(CCNCC3)[C@H]2O)nn1` as the compound, how does the cytotoxicity at 70.5 h read?
Answer: -6.38%

Question: Which cytotoxicity at 70.5 h does the source give for `Cc1cc(C(=O)N2C[C@@H]3COC[C@]3(COCc3cccnc3)C2)no1` here?
Answer: -12%
